Like-named read-outs stand apart in the source and are kept apart here.
Assays:
Assay type in all cases: cell-based
[1] = system: HCV 2a Rluc cells (NS5A chimeric genotype 2a JFH-1 replicon with genotype 2a J6 strain NS5A gene, M31 present); assay: HCV replicon reporter assay, genotype 2a J6 (M31 present); conditions: Hepatitis C virus, read-out: 2a J6
In short: (§1)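 Replicons used: genotype 1b Con1, 1a H77, 2a JFH-1, and a 2a JFH-1 chimera with J6-strain NS5A (M31 present), all dicistronic.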

[2] = system: HCV 1a RLuc cells (dicistronic genotype 1a H77 replicon, RLuc reporter); assay: microbe, parasite or virus in culture; conditions: Hepatitis C virus, read-out: 1a
In short: as §1

[3] = system: HCV 2a JFH-1 Rluc cells (dicistronic genotype 2a JFH-1 replicon, RLuc reporter); assay: microbe, parasite or virus in culture; conditions: Hepatitis C virus, read-out: 2a JFH
In short: as §1

[4] = system: HCV 2b Rluc cells (NS5A chimeric genotype 2a JFH-1 replicon with genotype 2b MD2b-1 NS5A gene, M31 present); assay: microbe, parasite or virus in culture; conditions: Hepatitis C virus, read-out: 2b
In short: (§2)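 Replicon cells stably carrying the listed RLuc-encoding dicistronic replicons were seeded and treated with DMSO serial dilutions of compound (10 mM stocks) diluted into culture medium. After 72 h, cells were lysed and Renilla luciferase activity measured. EC50 was derived by non-linear regression.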

[5] = system: HCV 4a Rluc cells (NS5A chimeric genotype 1b Con1 replicon with genotype 4a NS5A gene); assay: microbe, parasite or virus in culture; conditions: Hepatitis C virus, read-out: 4a
In short: as §2

[6] = system: HCV 1b RLuc cells (dicistronic genotype 1b Con1 replicon, RLuc reporter); assay: microbe, parasite or virus in culture; conditions: Hepatitis C virus, read-out: 1b (nM)
In short: as §1

[7] = system: HCV 3a RLuc cells (NS5A chimeric genotype 1b Con1 replicon with consensus genotype 3a NS5A gene); assay: microbe, parasite or virus in culture; conditions: Hepatitis C virus
In short: as §2

[8] = read-out: 3a, genotype 3a replicon

## CC(C)C(=O)N[C@@H](C(=O)N1CCC[C@H]1c1ncc(-c2cc3c4c(c2)OCc2cc(-c5cnc([C@@H]6CCCN6C(=O)[C@H](NC(=O)C(C)C)c6ccccc6)[nH]5)cc(c2-4)OC3)[nH]1)c1ccccc1 [Example 468]
[1]
  EC50: 0.001 to 0.999 nM
[2]; genotype 1a replicon
  EC50: 0.001 to 0.999 nM
[3]; genotype 2a JFH-1 replicon
  EC50: 0.001 to 0.999 nM
[4]
  EC50: 0.001 to 0.999 nM
[5]
  EC50: 0.001 to 0.99 nM
[6]
  EC50: 0.113 nM
[7]; [8]
  EC50: 0.001 to 0.99 nM

## O=C(N[C@@H](C(=O)N1CCC[C@H]1c1ncc(-c2cc3c4c(c2)OCc2cc(-c5cnc([C@@H]6CCCN6C(=O)[C@H](NC(=O)c6cccnc6)c6ccccc6)[nH]5)cc(c2-4)OC3)[nH]1)c1ccccc1)c1cccnc1 [Example 469]
[1]
  EC50: 0.001 to 0.999 nM
[2]; genotype 1a replicon
  EC50: 0.001 to 0.999 nM
[3]; genotype 2a JFH-1 replicon
  EC50: 0.001 to 0.999 nM
[4]
  EC50: 0.001 to 0.999 nM
[5]
  EC50: 0.001 to 0.99 nM
[6]
  EC50: 0.752 nM
[7]; [8]
  EC50: 0.001 to 0.99 nM

## CCCC(=O)N[C@@H](C(=O)N1CCC[C@H]1c1ncc(-c2cc3c4c(c2)OCc2cc(-c5cnc([C@@H]6CCCN6C(=O)[C@H](NC(=O)CCC)c6ccccc6)[nH]5)cc(c2-4)OC3)[nH]1)c1ccccc1 [Example 470]
[1]
  EC50: 0.001 to 0.999 nM
[2]; genotype 1a replicon
  EC50: 0.001 to 0.999 nM
[3]; genotype 2a JFH-1 replicon
  EC50: 0.001 to 0.999 nM
[4]
  EC50: 0.001 to 0.999 nM
[5]
  EC50: 0.001 to 0.99 nM
[6]
  EC50: 0.148 nM
[7]; [8]
  EC50: 0.001 to 0.99 nM

## COC[C@H]1C[C@@H](c2nc3ccc4cc(-c5ccc6c(ccc7nc([C@@H]8C[C@H]9C[C@H]9N8C(=O)[C@@H](NC(=O)OC)C(C)C)[nH]c76)c5)ccc4c3[nH]2)N(C(=O)[C@@H](NC(=O)OC)C(C)C)C1 [Example 471]
[1]
  EC50: 0.001 to 0.999 nM
[2]; genotype 1a replicon
  EC50: 0.001 to 0.999 nM
[3]; genotype 2a JFH-1 replicon
  EC50: 0.001 to 0.999 nM
[4]
  EC50: 1 to 44 nM
[5]
  EC50: 0.001 to 0.99 nM
[6]
  EC50: 0.015 nM
[7]; [8]
  EC50: 0.001 to 0.99 nM

## COC(=O)N[C@H](C(=O)N1CCC[C@H]1c1nc(Br)c(-c2cc3c4c(c2)OCc2cc(-c5[nH]c([C@@H]6CCCN6C(=O)[C@@H](NC(=O)OC)C(C)C)nc5Br)cc(c2-4)OC3)[nH]1)C(C)C [Example 473]
[1]
  EC50: 1 to 44 nM
[2]; genotype 1a replicon
  EC50: 0.001 to 0.999 nM
[3]; genotype 2a JFH-1 replicon
  EC50: 0.001 to 0.999 nM
[4]
  EC50: 1 to 44 nM
[5]
  EC50: 0.001 to 0.99 nM
[6]
  EC50: 0.015 nM
[7]; [8]
  EC50: 0.001 to 0.99 nM

## COC[C@H]1C[C@@H](c2nc3ccc4cc(-c5ccc(-c6cnc([C@@H]7CCCN7C(=O)[C@H](NC(=O)OC)c7ccccc7)[nH]6)cc5OCC(F)(F)F)ccc4c3[nH]2)N(C(=O)[C@@H](NC(=O)OC)C(C)C)C1 [Example 474]
[1]
  EC50: 1 to 44 nM
[2]; genotype 1a replicon
  EC50: 0.001 to 0.999 nM
[3]; genotype 2a JFH-1 replicon
  EC50: 0.001 to 0.999 nM
[4]
  EC50: 1 to 44 nM
[5]
  EC50: 0.001 to 0.99 nM
[6]
  EC50: 0.025 nM
[7]; [8]
  EC50: 0.001 to 0.99 nM

## COC[C@H]1C[C@@H](c2nc3ccc4cc(-c5ccc(-c6cnc([C@@H]7CCCN7C(=O)[C@H](NC(=O)CN(C)C)c7ccccc7)[nH]6)cc5)ccc4c3[nH]2)N(C(=O)[C@@H](NC(=O)OC)C(C)C)C1 [Example 476]
[1]
  EC50: 0.001 to 0.999 nM
[2]; genotype 1a replicon
  EC50: 0.001 to 0.999 nM
[3]; genotype 2a JFH-1 replicon
  EC50: 0.001 to 0.999 nM
[4]
  EC50: 0.001 to 0.999 nM
[5]
  EC50: 0.001 to 0.99 nM
[6]
  EC50: 0.099 nM
[7]; [8]
  EC50: 0.001 to 0.99 nM

## COC[C@H]1C[C@@H](c2nc3ccc4cc(-c5ccc(-c6cnc([C@@H]7CCCN7C(=O)[C@H](N)c7ccccc7)[nH]6)cc5)ccc4c3[nH]2)N(C(=O)[C@@H](NC(=O)OC)C(C)C)C1 [Example 477]
[1]
  EC50: 0.001 to 0.999 nM
[2]; genotype 1a replicon
  EC50: 0.001 to 0.999 nM
[3]; genotype 2a JFH-1 replicon
  EC50: 0.001 to 0.999 nM
[4]
  EC50: 0.001 to 0.999 nM
[5]
  EC50: 0.001 to 0.99 nM
[6]
  EC50: 0.089 nM
[7]; [8]
  EC50: 0.001 to 0.99 nM

## CCC(=O)N[C@@H](C(=O)N1CCC[C@H]1c1ncc(-c2ccc(-c3ccc4c(ccc5nc([C@@H]6C[C@H](COC)CN6C(=O)[C@@H](NC(=O)OC)C(C)C)[nH]c54)c3)cc2)[nH]1)c1ccccc1 [Example 479]
[1]
  EC50: 0.001 to 0.999 nM
[2]; genotype 1a replicon
  EC50: 0.001 to 0.999 nM
[3]; genotype 2a JFH-1 replicon
  EC50: 0.001 to 0.999 nM
[4]
  EC50: 0.001 to 0.999 nM
[5]
  EC50: 0.001 to 0.99 nM
[6]
  EC50: 0.034 nM
[7]; [8]
  EC50: 0.001 to 0.99 nM

## COCCC(=O)N[C@@H](C(=O)N1CCC[C@H]1c1ncc(-c2cc3c4c(c2)OCc2cc(-c5cnc([C@@H]6CCCN6C(=O)[C@H](NC(=O)CCOC)c6ccccc6)[nH]5)cc(c2-4)OC3)[nH]1)c1ccccc1 [Example 480]
[1]
  EC50: 1 to 44 nM
[2]; genotype 1a replicon
  EC50: 0.001 to 0.999 nM
[3]; genotype 2a JFH-1 replicon
  EC50: 0.001 to 0.999 nM
[4]
  EC50: 0.001 to 0.999 nM
[5]
  EC50: 0.001 to 0.99 nM
[6]
  EC50: 0.684 nM
[7]; [8]
  EC50: 0.001 to 0.99 nM

## CC(C)CC(=O)N[C@@H](C(=O)N1CCC[C@H]1c1ncc(-c2cc3c4c(c2)OCc2cc(-c5cnc([C@@H]6CCCN6C(=O)[C@H](NC(=O)CC(C)C)c6ccccc6)[nH]5)cc(c2-4)OC3)[nH]1)c1ccccc1 [Example 481]
[1]
  EC50: 0.001 to 0.999 nM
[2]; genotype 1a replicon
  EC50: 0.001 to 0.999 nM
[3]; genotype 2a JFH-1 replicon
  EC50: 0.001 to 0.999 nM
[4]
  EC50: 0.001 to 0.999 nM
[5]
  EC50: 0.001 to 0.99 nM
[6]
  EC50: 0.058 nM
[7]; [8]
  EC50: 0.001 to 0.99 nM

## O=C(N[C@@H](C(=O)N1CCC[C@H]1c1ncc(-c2cc3c4c(c2)OCc2cc(-c5cnc([C@@H]6CCCN6C(=O)[C@H](NC(=O)c6ccccn6)c6ccccc6)[nH]5)cc(c2-4)OC3)[nH]1)c1ccccc1)c1ccccn1 [Example 482]
[1]
  EC50: 0.001 to 0.999 nM
[2]; genotype 1a replicon
  EC50: 0.001 to 0.999 nM
[3]; genotype 2a JFH-1 replicon
  EC50: 0.001 to 0.999 nM
[4]
  EC50: 0.001 to 0.999 nM
[5]
  EC50: 0.001 to 0.99 nM
[6]
  EC50: 0.034 nM
[7]; [8]
  EC50: 0.001 to 0.99 nM

## COC(=O)N[C@H](C(=O)N[C@@H](C(=O)N1CCC[C@H]1c1ncc(-c2cc3c4c(c2)OCc2cc(-c5cnc([C@@H]6CCCN6C(=O)[C@H](NC(=O)[C@@H](NC(=O)OC)C(C)C)c6ccccc6)[nH]5)cc(c2-4)OC3)[nH]1)c1ccccc1)C(C)C [Example 483]
[1]
  EC50: > 44 nM
[2]; genotype 1a replicon
  EC50: 1 to 44 nM
[3]; genotype 2a JFH-1 replicon
  EC50: 0.001 to 0.999 nM
[4]
  EC50: 0.001 to 0.999 nM
[5]
  EC50: 0.001 to 0.99 nM
[6]
  EC50: 0.814 nM
[7]; [8]
  EC50: 0.001 to 0.99 nM

## CC(C)[C@@H](C(=O)N[C@@H](C(=O)N1CCC[C@H]1c1ncc(-c2cc3c4c(c2)OCc2cc(-c5cnc([C@@H]6CCCN6C(=O)[C@H](NC(=O)[C@H](C(C)C)N(C)C)c6ccccc6)[nH]5)cc(c2-4)OC3)[nH]1)c1ccccc1)N(C)C [Example 484]
[1]
  EC50: > 44 nM
[2]; genotype 1a replicon
  EC50: > 44 nM
[3]; genotype 2a JFH-1 replicon
  EC50: 0.001 to 0.999 nM
[4]
  EC50: > 44 nM
[5]
  EC50: 0.001 to 0.99 nM
[6]
  EC50: 0.953 nM
[7]; [8]
  EC50: 0.001 to 0.99 nM

## CC(C)[C@H](NC(=O)OC(C)(C)C)C(=O)N[C@@H](C(=O)N1CCC[C@H]1c1ncc(-c2cc3c4c(c2)OCc2cc(-c5cnc([C@@H]6CCCN6C(=O)[C@H](NC(=O)[C@@H](NC(=O)OC(C)(C)C)C(C)C)c6ccccc6)[nH]5)cc(c2-4)OC3)[nH]1)c1ccccc1 [Example 485]
[1]
  EC50: > 44 nM
[2]; genotype 1a replicon
  EC50: 1 to 44 nM
[3]; genotype 2a JFH-1 replicon
  EC50: 0.001 to 0.999 nM
[4]
  EC50: > 44 nM
[5]
  EC50: 0.001 to 0.99 nM
[6]
  EC50: 0.17 nM
[7]; [8]
  EC50: 0.001 to 0.99 nM

## CC(C)COC(=O)N[C@@H](C(=O)N1CCC[C@H]1c1ncc(-c2cc3c4c(c2)OCc2cc(-c5cnc([C@@H]6CCCN6C(=O)[C@H](NC(=O)OCC(C)C)c6ccccc6)[nH]5)cc(c2-4)OC3)[nH]1)c1ccccc1 [Example 487]
[1]
  EC50: > 44 nM
[2]; genotype 1a replicon
  EC50: 0.001 to 0.999 nM
[3]; genotype 2a JFH-1 replicon
  EC50: 0.001 to 0.999 nM
[4]
  EC50: 1 to 44 nM
[5]
  EC50: 0.001 to 0.99 nM
[6]
  EC50: 0.027 nM
[7]; [8]
  EC50: 0.001 to 0.99 nM

## CC(C)OC(=O)N[C@@H](C(=O)N1CCC[C@H]1c1ncc(-c2cc3c4c(c2)OCc2cc(-c5cnc([C@@H]6CCCN6C(=O)[C@H](NC(=O)OC(C)C)c6ccccc6)[nH]5)cc(c2-4)OC3)[nH]1)c1ccccc1 [Example 488]
[1]
  EC50: 1 to 44 nM
[2]; genotype 1a H77 RLuc replicon
  EC50: 0.001 to 0.999 nM
[3]; genotype 2a JFH-1 RLuc replicon
  EC50: 0.001 to 0.999 nM
[4]
  EC50: 0.001 to 0.999 nM
[5]
  EC50: 0.001 to 0.99 nM
[6]
  EC50: 0.03 nM
[7]; read-out: 3a, genotype 3a NS5A chimeric replicon
  EC50: 0.001 to 0.99 nM

Source: US10344019B2 (priority 2010, dated 2019)
